Measurements: patent US20200291018A1, “TAM KINASE INHIBITORS” (SYROS PHARMACEUTICALS, INC., priority 2017, published 2020)

Legend:
FLT3 = biological target: T1, FLT3 (Homo sapiens, UniProt P36888); assay: TR-FRET kinase activity assay, FLT3; type: biochemical; details: ATP at Km, 60 minutes
T1 sequence (P36888 27-993): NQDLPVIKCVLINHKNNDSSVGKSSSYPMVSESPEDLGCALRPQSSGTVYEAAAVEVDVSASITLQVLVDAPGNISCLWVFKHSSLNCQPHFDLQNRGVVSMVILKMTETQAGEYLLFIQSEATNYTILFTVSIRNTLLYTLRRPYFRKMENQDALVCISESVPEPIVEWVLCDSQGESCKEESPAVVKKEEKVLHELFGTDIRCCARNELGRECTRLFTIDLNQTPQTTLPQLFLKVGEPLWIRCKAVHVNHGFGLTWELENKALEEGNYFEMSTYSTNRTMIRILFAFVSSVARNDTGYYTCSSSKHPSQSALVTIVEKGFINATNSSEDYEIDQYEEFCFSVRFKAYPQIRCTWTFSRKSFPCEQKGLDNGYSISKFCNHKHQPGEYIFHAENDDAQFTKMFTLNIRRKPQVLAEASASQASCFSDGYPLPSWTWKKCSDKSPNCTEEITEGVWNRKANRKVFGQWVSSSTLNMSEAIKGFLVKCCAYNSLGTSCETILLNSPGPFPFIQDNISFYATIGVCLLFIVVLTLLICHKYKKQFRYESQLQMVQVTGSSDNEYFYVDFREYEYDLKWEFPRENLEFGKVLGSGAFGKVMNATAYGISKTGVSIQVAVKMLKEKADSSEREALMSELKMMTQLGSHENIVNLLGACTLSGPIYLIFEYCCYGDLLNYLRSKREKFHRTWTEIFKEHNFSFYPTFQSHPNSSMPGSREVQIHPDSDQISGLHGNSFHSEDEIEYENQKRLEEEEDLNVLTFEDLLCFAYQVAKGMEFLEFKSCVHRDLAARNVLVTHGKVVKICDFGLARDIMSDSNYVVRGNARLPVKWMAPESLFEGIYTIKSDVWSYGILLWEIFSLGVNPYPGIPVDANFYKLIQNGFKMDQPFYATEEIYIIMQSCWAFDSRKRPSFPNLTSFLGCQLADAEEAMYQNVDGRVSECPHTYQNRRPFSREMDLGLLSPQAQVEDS
Outline: (§1)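 Steps: compound, enzyme and labeled peptide combined at RT (50 mM HEPES pH 7.5, 10 mM MgCl2, 1 mM DTT); ATP added at Km; 60 min reaction; EDTA quench; Eu-antibody development 30 min in darkness; TR-FRET measured and IC50 fitted.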

MERTK = biological target: T2, MERTK (Homo sapiens, UniProt Q12866); assay: TR-FRET kinase activity assay, MERTK; type: biochemical; details: for IC50: TR-FRET activity assay, ATP at Km, 60 minutes, read-out: Mer IC50; for Mer/Flt3 ratio (FLT3 IC50/Mer IC50): ratio calculated as FLT3 IC50/Mer IC50
T2 sequence (Q12866 21-999): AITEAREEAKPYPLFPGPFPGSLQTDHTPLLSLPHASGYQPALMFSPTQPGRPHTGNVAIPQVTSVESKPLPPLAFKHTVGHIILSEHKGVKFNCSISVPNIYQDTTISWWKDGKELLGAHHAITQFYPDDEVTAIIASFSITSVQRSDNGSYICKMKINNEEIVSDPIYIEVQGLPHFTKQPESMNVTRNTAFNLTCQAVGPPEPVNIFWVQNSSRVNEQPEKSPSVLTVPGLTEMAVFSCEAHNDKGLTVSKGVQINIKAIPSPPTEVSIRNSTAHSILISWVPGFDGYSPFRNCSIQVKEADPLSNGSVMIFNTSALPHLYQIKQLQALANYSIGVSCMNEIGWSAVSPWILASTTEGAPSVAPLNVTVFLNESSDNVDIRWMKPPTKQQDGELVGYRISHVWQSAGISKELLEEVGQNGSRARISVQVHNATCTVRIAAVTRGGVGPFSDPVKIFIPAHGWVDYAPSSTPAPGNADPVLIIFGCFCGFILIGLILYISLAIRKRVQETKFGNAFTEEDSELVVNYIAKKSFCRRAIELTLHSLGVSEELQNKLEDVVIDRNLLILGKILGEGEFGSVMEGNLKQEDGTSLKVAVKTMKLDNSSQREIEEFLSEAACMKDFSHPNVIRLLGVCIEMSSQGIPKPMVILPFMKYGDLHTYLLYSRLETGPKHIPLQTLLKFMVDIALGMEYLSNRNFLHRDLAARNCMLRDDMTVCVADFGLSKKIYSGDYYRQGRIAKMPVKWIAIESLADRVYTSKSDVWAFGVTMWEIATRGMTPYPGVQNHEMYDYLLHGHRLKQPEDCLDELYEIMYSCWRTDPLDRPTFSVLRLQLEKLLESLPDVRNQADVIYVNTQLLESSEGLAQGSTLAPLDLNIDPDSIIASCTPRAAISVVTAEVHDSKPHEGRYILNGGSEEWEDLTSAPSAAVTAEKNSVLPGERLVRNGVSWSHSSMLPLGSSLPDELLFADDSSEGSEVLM
Outline: as §1

IC50 (FLT3) | IC50 (MERTK) | Mer/Flt3 ratio (FLT3 IC50/Mer IC50) (MERTK) | Compound
100 to 1000 nM | ≤ 100 nM | ++ (a ratio of between 10 and 100) | CCc1cc(Nc2ncc3c(OC4CCNCC4)ncc([C@H]4CC[C@H](O)CC4)c3n2)ccc1Cl [Compound 300]
1000 to 10000 nM | ≤ 100 nM | +++ (a ratio of >100) | COC[C@H](C)Nc1ncc2c(OC3CCOCC3)ncc(-c3ccc(O)cc3)c2n1 [Compound 301]
1000 to 10000 nM | 100 to 1000 nM | ++ (a ratio of between 10 and 100) | COC[C@H](C)Nc1ncc2c(O[C@H]3CCNCC3(F)F)ncc([C@H]3CC[C@H](O)CC3)c2n1 [Compound 302]
1000 to 10000 nM | ≤ 100 nM | +++ (a ratio of >100) | COC[C@H](C)Nc1ncc2c(C)ncc([C@H]3CC[C@H](O)CC3)c2n1 [Compound 303]
1000 to 10000 nM | ≤ 100 nM | +++ (a ratio of >100) | C[C@@H](CF)Nc1ncc2c(OC3CCOCC3)ncc([C@H]3CC[C@H](O)CC3)c2n1 [Compound 304]
100 to 1000 nM | ≤ 100 nM | +++ (a ratio of >100) | C[C@@H](CC(F)(F)F)Nc1ncc2c(OC3CCOCC3)ncc([C@H]3CC[C@H](O)CC3)c2n1 [Compound 305]
1000 to 10000 nM | ≤ 100 nM | +++ (a ratio of >100) | CC[C@H](C)Nc1ncc2c(OC3CCN(c4ncccn4)CC3)ncc([C@H]3CC[C@H](O)CC3)c2n1 [Compound 306]
1000 to 10000 nM | ≤ 100 nM | +++ (a ratio of >100) | COC[C@H](C)Nc1ncc2c(OC3CCOCC3)ncc(-c3cccc(S(=O)(=O)N(C)C)c3)c2n1 [Compound 307, (S)-3-(2-((1-methoxypropan-2-yl)amino)-5-((tetrahydro-2H-pyran-4-yl)oxy)pyrido[4,3-d]pyrimidin-8-yl)-N,N-dimethylbenzenesulfonamide]
1000 to 10000 nM | ≤ 100 nM | +++ (a ratio of >100) | COC[C@H](C)Nc1ncc2c(O[C@@H]3CCNCC3(F)F)ncc([C@H]3CC[C@H](O)CC3)c2n1 [Compound 308]
1000 to 10000 nM | ≤ 100 nM | +++ (a ratio of >100) | COC[C@H](C)Nc1ncc2c(OC3CCOCC3)ncc(-c3ccc(N)cc3)c2n1 [Compound 309]
1000 to 10000 nM | ≤ 100 nM | +++ (a ratio of >100) | COCCN1C(C)(C)CC(Oc2ncc([C@H]3CC[C@H](O)CC3)c3nc(N[C@@H](C)COC)ncc23)CC1(C)C [Compound 310]
1000 to 10000 nM | ≤ 100 nM | +++ (a ratio of >100) | C[C@@H](CCF)Nc1ncc2c(OC3CCOCC3)ncc([C@H]3CC[C@H](O)CC3)c2n1 [Compound 311]
1000 to 10000 nM | ≤ 100 nM | +++ (a ratio of >100) | COCC[C@H](C)Nc1ncc2c(OC3CCOCC3)ncc([C@H]3CC[C@H](O)CC3)c2n1 [Compound 312]
1000 to 10000 nM | ≤ 100 nM | +++ (a ratio of >100) | CC(C)Nc1ncc2c(OC3CCOCC3)ncc(-c3cccc(S(C)(=O)=O)c3)c2n1 [Compound 313]
1000 to 10000 nM | 100 to 1000 nM | ++ (a ratio of between 10 and 100) | COC[C@H](C)Nc1ncc2c(OC3CCOCC3)ncc(-c3cnn([C@@H]4CCN(C)C4)c3)c2n1 [Compound 314]
1000 to 10000 nM | ≤ 100 nM | +++ (a ratio of >100) | COC[C@H](C)Nc1ncc2c(OC3CCOCC3)ncc([C@H]3CC[C@H](NC(C)=O)CC3)c2n1 [Compound 315]
1000 to 10000 nM | ≤ 100 nM | +++ (a ratio of >100) | COC[C@H](C)Nc1ncc2c(OC3CCOCC3)ncc([C@H]3CC[C@H](NS(C)(=O)=O)CC3)c2n1 [Compound 316]
> 10000 nM | ≤ 100 nM | +++ (a ratio of >100) | CNS(=O)(=O)N[C@H]1CC[C@H](c2cnc(OC3CCOCC3)c3cnc(N[C@@H](C)COC)nc32)CC1 [Compound 317]
1000 to 10000 nM | ≤ 100 nM | +++ (a ratio of >100) | CC(C)Nc1ncc2c(OC3CCOCC3)ncc(-c3cccc(S(=O)(=O)C(C)C)c3)c2n1 [Compound 318]
1000 to 10000 nM | ≤ 100 nM | +++ (a ratio of >100) | COC[C@H](C)Nc1ncc2c(OC3CCOCC3)ncc(-c3ccc(CC#N)cc3)c2n1 [Compound 319]
1000 to 10000 nM | 100 to 1000 nM | ++ (a ratio of between 10 and 100) | COC[C@H](C)Nc1ncc2c(OC3CCOCC3)ncc(-c3cccc(C#N)c3)c2n1 [Compound 320]
100 to 1000 nM | ≤ 100 nM | +++ (a ratio of >100) | CC[C@H](C)Nc1ncc2c(O[C@H]3CC[C@H](N)CC3)ncc([C@H]3CC[C@H](O)CC3)c2n1 [Compound 321]
100 to 1000 nM | ≤ 100 nM | +++ (a ratio of >100) | CN(C)S(=O)(=O)c1cccc(-c2cnc(OC3CCOCC3)c3cnc(NC4(C)CC4)nc23)c1 [Compound 322]
1000 to 10000 nM | ≤ 100 nM | +++ (a ratio of >100) | CN1C[C@H](Nc2ncc3c(OC4CCOCC4)ncc([C@H]4CC[C@H](O)CC4)c3n2)CC1=O [Compound 323]
1000 to 10000 nM | 100 to 1000 nM | ++ (a ratio of between 10 and 100) | CN1C[C@@H](Nc2ncc3c(OC4CCOCC4)ncc([C@H]4CC[C@H](O)CC4)c3n2)CC1=O [Compound 324]
